Test results reported in US11497813B2, “Bortezomib conjugates and methods using same” (Frank EBETINO et al., priority 2015, dated 2022).

Tests used:
[1] = tested on: Myeloma cells; test: Myeloma cell growth in vitro (living cell count); type: cell-based; details: 24 hrs, living cell numbers counted
Experimental: Myeloma cells were treated with different concentrations of testing compounds for 24 hrs. The living cell numbers were counted. *p<0.05 vs. Btz.

[2] = tested on: fractured aged mice; test: Tibial fracture healing in aged (20-m-old) mice; type: in vivo, mouse
Experimental: 20-m-old B6 mice had tibial fractures and were given Btz (0.6 mg/kg body weight, i.p.) or saline (Ctl) at day 1, 3, and 5 post-fracture 3 times. FIG. 8A is a graph depicting callus volumes for mice subjected to μCT at day 28. FIG. 8B is a graph depicting experimental data from mice subjected to bio-mechanical testing at day 28. FIG. 8C is a graph depicting experimental data of mice sacrificed for histological analyses at day 28. Values are the mean of 6 mice. *P<0.05 vs. saline-treated mice. FIG. 8D is a graph of data from 3-m-old (young) and 20-m-old (aged) mice after tibial fracture surgery and sacrificed at day 14 post-fracture. The % of CD45^−CD105^+Sca-1^+ cells in fracture callus were determined by flow cytometry as depicted in FIG. 7B. Values are the mean of 4 mice. *P<0.05 vs. saline-treated aged mice. #P<0.05 vs. young mice.

[3] = tested on: mice; test: Survival of mice treated with Btz; type: in vivo, mouse
Text: BP-Btz is expected to have a higher efficacy on 1) reducing OVX-induced bone loss and 2) promoting fracture healing in aged mice with lesser adverse systemic effects than those of Btz. A critical difference between BP-Btz and Btz is that in vivo BP-Btz brings Btz to bone, thereby exerting its bioactivity locally, while Btz can exert its bioactivity systemically. It is hypothesized that BP-Btz conjugates should have similar or better positive bioactivities than Btz on bone volume, but with a significant reduction in side effects. In humans, the toxicities of Btz include peripheral neuropathy and thrombocytopenis (Weathington and Mallampalli, 2014, J. Clin. Invest. 124:6-12). Little is known the toxicity of Btz in mice. […] Although not wishing to be bound by any particular theory, these adverse effects are thought to be due to the systemic distribution of the drug. Thus, the generation of bone-targeted Btz could meet a critical clinical need, by and increasing the local drug concentration to capitalize on the efficacy of BTz while reducing systemic side effects. Because proteasome inhibitors could increase bone volume in normal and OVX mice, and promote fracture healing in adult mice (Khedgikar et al., 2013, Cell Death Dis. 4:e778; Maseda et al., 2008, Cell Death Differ. 15:600-612), OVX and fracture models are used to examine the efficacy of the leading BP-Btz conjugates on bone. […]

SMILES | myeloma cell growth [1] | fracture repair ([2]; 20-m-old B6 mice, 0.6 mg/kg i.p. day 1, 3, 5) | MPCs ([2]; fractured aged mice) | bone strength ([2]; fractured aged mice) | callus formation ([2]; fractured aged mice) | survival rate ([3]; aged mice) | survival ([3]; young mice)
CC(C)C[C@H](NC(=O)[C@H](Cc1ccccc1)NC(=O)c1cnccn1)B1OCCN(CCOC(=O)NC(P(=O)(O)O)P(=O)(O)O)CCO1 [BP-Btz1] | inhibits myeloma cell growth | – | – | – | – | – | –
CC(C)C[C@H](NC(=O)[C@H](Cc1ccccc1)NC(=O)c1cnccn1)B(O)O [Btz, [(1R)-3-methyl-1-[[(2S)-1-oxo-3-phenyl-2[(pyrazinylcarbonyl)amino]propyl]amino]butyl] boronic acid] | – | promotes fracture repair | increased | increased | increased | 53% | 94%
